According to publication PMC4000213 (PLoS ONE, 2014):
Values joined by “and” are separate entries in the source; they are usually repeats but may differ in a detail not shown here. Equal entries are not always repeated. “Also recorded” adds a separate entry of the source. Where two headings read alike, the source gives them in different places.

What was measured:
BoNT/A / LcA = settings: cited from earlier work
LcA (BoNT/A light chain) [1] = molecular target: T1, LcA (BoNT/A light chain) (Clostridium botulinum, UniProt P0DPI0)
T1 sequence (P0DPI0 1-448 limits assumed): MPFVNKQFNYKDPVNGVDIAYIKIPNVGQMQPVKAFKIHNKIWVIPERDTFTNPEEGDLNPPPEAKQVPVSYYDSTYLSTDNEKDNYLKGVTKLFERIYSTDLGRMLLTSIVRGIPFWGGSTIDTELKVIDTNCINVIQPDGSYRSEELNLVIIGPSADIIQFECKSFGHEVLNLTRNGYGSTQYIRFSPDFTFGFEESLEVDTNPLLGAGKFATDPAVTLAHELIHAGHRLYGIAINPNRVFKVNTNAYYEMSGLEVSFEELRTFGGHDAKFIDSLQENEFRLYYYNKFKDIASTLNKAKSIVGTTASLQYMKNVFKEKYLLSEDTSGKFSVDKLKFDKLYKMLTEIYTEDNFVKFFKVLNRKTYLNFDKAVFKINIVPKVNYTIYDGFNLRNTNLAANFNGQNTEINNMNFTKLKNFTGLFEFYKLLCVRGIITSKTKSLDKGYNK

LcA (BoNT/A light chain) [2] = molecular target: T1, LcA (BoNT/A light chain); remark: listed apart in the source
LcA (BoNT/A light chain) [3] = molecular target: T1, LcA (BoNT/A light chain); settings: cited from earlier work
LcA (BoNT/A light chain) [4] = molecular target: T1, LcA (BoNT/A light chain); remark: listed apart in the source
LcA (BoNT/A light chain) [5] = molecular target: T1, LcA (BoNT/A light chain); type: biochemical
LcA (BoNT/A light chain) [6] = molecular target: T1, LcA (BoNT/A light chain); settings: cited from earlier work; remark: listed apart in the source
LcA (BoNT/A light chain) [7] = molecular target: T1, LcA (BoNT/A light chain); type: biochemical; remark: listed apart in the source
LcA (BoNT/A light chain) [8] = molecular target: T1, LcA (BoNT/A light chain); type: biochemical; settings: pH 7.4

## O=C(O)CN(CCN(CC(=O)O)CC(=O)O)CC(=O)O [EDTA, ethylenediaminetetraacetate]
BoNT/A / LcA
  effect on BoNT / LcA activity: inhibitor of LcA activity
  effect on BoNT activities: inhibits BoNT activities
  effect on BoNT/A activity: inhibitory

## SNKTRIDEANQ-RATKML [17-mer]
LcA (BoNT/A light chain) [1]
  quality as LcA substrate (Km, kcat, kcat/Km): poorest of all the three substrates
LcA (BoNT/A light chain) [2]
  substrate conversion: 60–65%
  substrate converted into products: 40%
LcA (BoNT/A light chain) [3]
  Km: 1000 µM
LcA (BoNT/A light chain) [4]
  Km: 1500 µM
  Vmax: 33.6 mM/min/mg
  kcat: 28 s⁻¹
LcA (BoNT/A light chain) [4]; pH 7.4
  Km: 1510 µM
  kcat: 28 s⁻¹ and 28 ± 3.5 s⁻¹
  kcat/Km: 0.019 µM/s

## SNRTRIDEAN[dnpK]RA[daciaC]RML
LcA (BoNT/A light chain) [3]
  Km: 10 µM
  kcat: 7 s⁻¹

## (FITC)-ATDRIDQANQRATK(DABCYL)nL-amide
LcA (BoNT/A light chain) [3]
  Km: 19 µM

## O[C@@H](CS)[C@@H](O)CS (racemic) [DTT, dithiothreitol]
BoNT/A / LcA
  effect of DTT on solubilized LcA activity: inhibited
  effect on the LcA reaction depending on concentration: both stimulating and inhibitory
LcA (BoNT/A light chain) [5]
  concentration for optimal LcA activity: 4 mM
LcA (BoNT/A light chain) [5]; pH 7.4
  effect of DTT on LcA activity, SNAP25 substrate: slight stimulation of LcA activity
LcA (BoNT/A light chain) [6]
  effect on kinetic constants or specific activity of LcA with the 17-mer substrate: no effect
LcA (BoNT/A light chain) [7]
  behavior of the new LcA preparation on adding BSA, ZnCl2 and DTT: essentially same behavior
  effect of adding DTT and ZnCl2 to the 17-mer substrate reactions: results identical to those without them

## zinc chloride [ZnCl2]
LcA (BoNT/A light chain) [5]
  concentration for optimal LcA activity: 0.1 mM
LcA (BoNT/A light chain) [5]; pH 7.4
  effect of ZnCl2 on LcA activity, SNAP25 substrate: slight stimulation of the activity; also recorded: activity remained above the control 100%
LcA (BoNT/A light chain) [6]
  effect on kinetic constants or specific activity of LcA with the 17-mer substrate: no effect
LcA (BoNT/A light chain) [7]
  behavior of the new LcA preparation on adding BSA, ZnCl2 and DTT: essentially same behavior
  effect of adding DTT and ZnCl2 to the 17-mer substrate reactions: results identical to those without them

## [Zn] [zinc]
BoNT/A / LcA
  effect on the LcA reaction depending on concentration: both stimulating and inhibitory

## Cl.NC(CO)(CO)CO [tris.HCl]
BoNT/A / LcA
  effect on BoNT / LcA activity: inhibitory
  effect on BoNT/A activity: inhibitory

## [Cl-].[Na+] [NaCl, Sodium chloride]
BoNT/A / LcA
  effect on BoNT activities: inhibits BoNT activities
  effect on BoNT/A activity: inhibitory
LcA (BoNT/A light chain) [5]
  effect of higher NaCl concentrations on LcA activity, full length SNAP25 substrate: decrease in LcA activity
LcA (BoNT/A light chain) [5]; pH 7.4
  effect of NaCl on LcA activity, full length SNAP25 substrate: stimulating effect; also recorded: more than sevenfold
LcA (BoNT/A light chain) [8]
  effect of NaCl on LcA activity, 66-mer substrate: stimulating effect; also recorded: The same was also observed when the 66-mer peptide was used as a substrate
LcA (BoNT/A light chain) [7]; pH 7.4
  effect of NaCl on LcA activity, 17-mer substrate: inhibitory effect
